Laboratory results taken from patent publication US20060112494A1, “Method of protecting an animal skin product from metalloproteinase activity” (priority 2004, published 2006).
Like-named read-outs stand apart in the source and are kept apart here.

What was measured:
[1] = system: collagenase; conditions: for Collagenase Activity/Days 2: day 2; for Collagenase Activity/Days 7: day 7; for Collagenase Activity/Days 1: day 1
[2] = system: collagenase
[3] = system: Aeromonas salmonicida; design: key to the marks not given beside the values; conditions: for Growth/Days 1: day 1; for Growth/Days 2: day 2; for Growth/Days 7: day 7
Procedure: (§1) Nutrient agar amended with Azocoll (a substrate made up of insoluble particles of collagen impregnated with a bright azo dye) was used as the test medium to study collagenase activity. The nutrient agar was prepared and autoclaved and then was cooled to 55° C. Azocol was added to give a final concentration of 0.5%. […] Using a sterile spatula or cork-borer, the middle portion of each plate of about the size of a United States quarter, was scooped out. Fresh nutrient agar-azocoll medium containing no inhibitor was added to replace the scooped out portion of the plate. […] The bacteria were grown overnight on nutrient agar. A suspension of each culture was made in sterile water and used to inoculate the middle portion of each plate. The treated samples were incubated at 30° C. and evaluated after 24 hours, 2 days and 7 days for collagenase activity and also for the growth of the bacteria. The test cultures secreted collagenase into the medium as they grew to degrade the collagen in the azocoll medium, and collagenase activity was determined by visual inspection of the clear zone around the bacteria. All % are by weight percent of the active ingredient.

[4] = system: Pseudomonas fluorescens
Procedure: as §1

[5] = Conc. 1.8%, column day 1, footnote d: data collected on day 2
[6] = Conc. 1.8%, column day 2, footnote e: data collected on day 3

## O=C(O)C[C@H](NCCN[C@@H](CC(=O)O)C(=O)O)C(=O)O [Na3EDDS, S,S′-ethylenediamine disuccinic acid]
[1]; Conc. 0.2%
  Collagenase Activity/Days 2: ++++
  Collagenase Activity/Days 7: ++++
[1]; Conc. 0.5%
  Collagenase Activity/Days 1: 0
  Collagenase Activity/Days 7: ++++
[1]; Conc. 0.7%
  Collagenase Activity/Days 1: 0
[1]; Conc. 1%
  Collagenase Activity/Days 1: 0
[1]; Conc. 1.2%
  Collagenase Activity/Days 1: 0
  Collagenase Activity/Days 2: +
  Collagenase Activity/Days 7: ++++
[1]; Conc. 1.3%
  Collagenase Activity/Days 1: 0
  Collagenase Activity/Days 2: 0
[1]; Conc. 1.5%
  Collagenase Activity/Days 1: 0
  Collagenase Activity/Days 2: 0
  Collagenase Activity/Days 7: 0
[1]; Conc. 1.8%
  Collagenase Activity/Days 1: 0
  Collagenase Activity/Days 2: 0
  Collagenase Activity/Days 7: 0
[1]; Conc. 2%
  Collagenase Activity/Days 1: 0
  Collagenase Activity/Days 2: 0
  Collagenase Activity/Days 7: 0
[1]; collagenase produced by the bacteria studied, Table 2
  performance as collagenase inhibitors (summary in words): performed very well as collagenase inhibitors
[2]; Conc. 0.1%, day 1
  Collagenase Activity/Days 1: ++++
[2]; Conc. 0.1%, day 2
  Collagenase Activity/Days 2: ++++
[2]; Conc. 0.1%, day 7
  Collagenase Activity/Days 7: ++++
[2]; Conc. 0.2%, day 2
  Collagenase Activity/Days 2: ++++
[2]; Conc. 0.2%, day 7
  Collagenase Activity/Days 7: ++++
[2]; Conc. 0.3%, day 1
  Collagenase Activity/Days 1: 0
[2]; Conc. 0.3%, day 2
  Collagenase Activity/Days 2: +++
[2]; Conc. 0.3%, day 7
  Collagenase Activity/Days 7: ++++
[2]; Conc. 0.4%, day 1
  Collagenase Activity/Days 1: 0
[2]; Conc. 0.4%, day 2
  Collagenase Activity/Days 2: ++
[2]; Conc. 0.4%, day 7
  Collagenase Activity/Days 7: ++++
[2]; Conc. 0.5%, day 1
  Collagenase Activity/Days 1: 0
[2]; Conc. 0.5%, day 7
  Collagenase Activity/Days 7: ++++
[2]; Conc. 0.6%, day 1
  Collagenase Activity/Days 1: 0
[2]; Conc. 0.6%, day 2
  Collagenase Activity/Days 2: 0
[2]; Conc. 0.6%, day 7
  Collagenase Activity/Days 7: +
[2]; Conc. 0.7%, day 1
  Collagenase Activity/Days 1: 0
[2]; Conc. 0.8%, day 1
  Collagenase Activity/Days 1: 0
[2]; Conc. 0.8%, day 2
  Collagenase Activity/Days 2: 0
[2]; Conc. 0.8%, day 7
  Collagenase Activity/Days 7: 0
[2]; Conc. 0.9%, day 1
  Collagenase Activity/Days 1: 0
[2]; Conc. 0.9%, day 2
  Collagenase Activity/Days 2: 0
[2]; Conc. 0.9%, day 7
  Collagenase Activity/Days 7: 0
[2]; Conc. 1%, day 1
  Collagenase Activity/Days 1: 0
[2]; Conc. 1.3%, day 1
  Collagenase Activity/Days 1: 0
[2]; Conc. 1.3%, day 2
  Collagenase Activity/Days 2: 0
[2]; Conc. 1.5%, day 1
  Collagenase Activity/Days 1: 0
[2]; Conc. 1.5%, day 2
  Collagenase Activity/Days 2: 0
[2]; Conc. 1.5%, day 7
  Collagenase Activity/Days 7: 0
[2]; [5]
  Collagenase Activity/Days 1: 0^d
[2]; [6]
  Collagenase Activity/Days 2: 0^e
[2]; Conc. 1.8%, day 7 (footnote f)
  Collagenase Activity/Days 7: 0^f
[2]; collagenase produced by the bacteria studied, Table 1
  performance as collagenase inhibitors (summary in words): performed very well as collagenase inhibitors
[3]; Conc. 0.2%
  Growth/Days 1: ++++
  Growth/Days 2: ++++
  Growth/Days 7: ++++
[3]; Conc. 0.5%
  Growth/Days 1: ++++
  Growth/Days 2: ++++
  Growth/Days 7: ++++
[3]; Conc. 0.7%
  Growth/Days 1: ++++
  Growth/Days 2: ++++
  Growth/Days 7: ++++
[3]; Conc. 1%
  Growth/Days 1: ++++
  Growth/Days 2: ++++
  Growth/Days 7: ++++
[3]; Conc. 1.2%
  Growth/Days 1: ++++
  Growth/Days 2: ++++
  Growth/Days 7: ++++
[3]; Conc. 1.3%
  Growth/Days 1: ++++
  Growth/Days 2: ++++
  Growth/Days 7: ++++
[3]; Conc. 1.5%
  Growth/Days 1: ++++
  Growth/Days 2: ++++
  Growth/Days 7: ++++
[3]; Conc. 1.8%
  Growth/Days 1: +++
  Growth/Days 2: ++++
  Growth/Days 7: ++++
[3]; Conc. 2%
  Growth/Days 1: ++
  Growth/Days 2: +++
  Growth/Days 7: +++
[4]; Conc. 0.1%, day 1
  Growth/Days 1: ++++
[4]; Conc. 0.1%, day 2
  Growth/Days 2: ++++
[4]; Conc. 0.1%, day 7
  Growth/Days 7: ++++
[4]; Conc. 0.2%, day 1
  Growth/Days 1: ++++
[4]; Conc. 0.2%, day 2
  Growth/Days 2: ++++
[4]; Conc. 0.2%, day 7
  Growth/Days 7: ++++
[4]; Conc. 0.3%, day 1
  Growth/Days 1: ++++
[4]; Conc. 0.3%, day 2
  Growth/Days 2: ++++
[4]; Conc. 0.3%, day 7
  Growth/Days 7: ++++
[4]; Conc. 0.4%, day 1
  Growth/Days 1: ++++
[4]; Conc. 0.4%, day 2
  Growth/Days 2: ++++
[4]; Conc. 0.4%, day 7
  Growth/Days 7: ++++
[4]; Conc. 0.5%, day 1
  Growth/Days 1: ++++
[4]; Conc. 0.5%, day 2
  Growth/Days 2: ++++
[4]; Conc. 0.5%, day 7
  Growth/Days 7: ++++
[4]; Conc. 0.6%, day 1
  Growth/Days 1: ++++
[4]; Conc. 0.6%, day 2
  Growth/Days 2: ++++
[4]; Conc. 0.6%, day 7
  Growth/Days 7: ++++
[4]; Conc. 0.7%, day 1
  Growth/Days 1: ++++
[4]; Conc. 0.7%, day 2
  Growth/Days 2: ++++
[4]; Conc. 0.7%, day 7
  Growth/Days 7: ++++
[4]; Conc. 0.8%, day 1
  Growth/Days 1: ++++
[4]; Conc. 0.8%, day 2
  Growth/Days 2: ++++
[4]; Conc. 0.8%, day 7
  Growth/Days 7: ++++
[4]; Conc. 0.9%, day 1
  Growth/Days 1: ++++
[4]; Conc. 0.9%, day 2
  Growth/Days 2: ++++
[4]; Conc. 0.9%, day 7
  Growth/Days 7: ++++
[4]; Conc. 1%, day 1
  Growth/Days 1: ++++
[4]; Conc. 1%, day 2
  Growth/Days 2: ++++
[4]; Conc. 1%, day 7
  Growth/Days 7: ++++
[4]; Conc. 1.3%, day 1
  Growth/Days 1: ++++
[4]; Conc. 1.3%, day 2
  Growth/Days 2: ++++
[4]; Conc. 1.3%, day 7
  Growth/Days 7: ++++
[4]; Conc. 1.5%, day 1
  Growth/Days 1: ++++
[4]; Conc. 1.5%, day 2
  Growth/Days 2: ++++
[4]; Conc. 1.5%, day 7
  Growth/Days 7: ++++
[4]; [5]
  Growth/Days 1: ++++^d
[4]; [6]
  Growth/Days 2: ++++^e
[4]; Conc. 1.8%, day 7 (footnote f)
  Growth/Days 7: ++++^f
